Measurements: US8828972B2, “Formulations containing alkylphosphocholines using novel negative charge carriers” (Max-Planck-Gesellschaft zur Foerderung der Wissenschaften …, priority 2004, dated 2014)

Key:
[1] = test system: Cushing's and bladder tumours; test: Treatment of cancer in dogs; assay type: in vivo
Tumour cells = test: Sensitisation of tumour cells to radiation therapy; assay type: cell-based; conditions: tumour cells doped with the substance

SMILES | treatment of Cushing's and bladder tumours [1] | sensitisation to radiation therapy (Tumour cells)
CCCCCCCCC=CCCCCCCCCCCCCOP(=O)([O-])OCCC[N+](C)(C)C [erucylphospho-(N,N,N-trimethyl)-propylammonium] | treated successfully | –
CCCCCCCCC=CCCCCCCCCCCCCOP(=O)([O-])OCCC[N+](C)(C)C [erufosin] | – | sensitised to radiation therapy
